Results taken from the NIST ThermoML archive (doi:10.1021/je1013476).
± gives the expanded uncertainty stated by the source.

Experiments:
[1] = excess molar enthalpy (molar enthalpy of mixing); xn = mol fraction of the nth substance listed; conditions: 303.15 K, 101 kPa, Liquid, Calvet calorimetry
[2] = xn = mol fraction of the nth substance listed; conditions: 101 kPa, Liquid; for viscosity: Capillary tube (Ostwald / Ubbelohde) method; for mass density: Vibrating tube method

CCOC(=O)OCC [diethyl carbonate] + CCCCCCCCO
[1]
Conditions | excess molar enthalpy [kcal/mol]
x1 = 0.09134 | 0.176 ± 0.00382
x1 = 0.1276 | 0.236 ± 0.00502
x1 = 0.1764 | 0.31 ± 0.00669
x1 = 0.2484 | 0.394 ± 0.00837
x1 = 0.3155 | 0.46 ± 0.0098
x1 = 0.374 | 0.5 ± 0.0108
x1 = 0.4304 | 0.528 ± 0.0112
x1 = 0.491 | 0.544 ± 0.0117
x1 = 0.5699 | 0.542 ± 0.0115
x1 = 0.6268 | 0.529 ± 0.0112
x1 = 0.6895 | 0.499 ± 0.0108
x1 = 0.7492 | 0.455 ± 0.0098
x1 = 0.8111 | 0.387 ± 0.00837
x1 = 0.8705 | 0.298 ± 0.00645
x1 = 0.9357 | 0.167 ± 0.00359

[2]
Conditions | mass density [kg/m3] | viscosity [mPa·s]
288.15 K, x1 = 0.05879 | 834.94 ± 0.11 | 8.723 ± 0.081
288.15 K, x1 = 0.09178 | 838.6 ± 0.11 | 7.678 ± 0.071
288.15 K, x1 = 0.184 | 849.27 ± 0.11 | 5.521 ± 0.052
288.15 K, x1 = 0.2839 | 861.63 ± 0.1 | 3.992 ± 0.038
288.15 K, x1 = 0.4001 | 877.04 ± 0.1 | 2.876 ± 0.028
288.15 K, x1 = 0.5109 | 892.89 ± 0.09 | 2.157 ± 0.021
288.15 K, x1 = 0.598 | 906.21 ± 0.09 | 1.773 ± 0.017
288.15 K, x1 = 0.6927 | 921.66 ± 0.09 | 1.441 ± 0.014
288.15 K, x1 = 0.8073 | 941.89 ± 0.08 | 1.157 ± 0.011
288.15 K, x1 = 0.9275 | 965.14 ± 0.08 | 0.953 ± 0.009
288.15 K, x1 = 0.9531 | 970.42 ± 0.08 | 0.921 ± 0.009
293.15 K, x1 = 0.05259 | 830.75 ± 0.11 | 7.441 ± 0.069
293.15 K, x1 = 0.1047 | 836.45 ± 0.11 | 6.062 ± 0.057
293.15 K, x1 = 0.1967 | 847.03 ± 0.11 | 4.538 ± 0.043
293.15 K, x1 = 0.2955 | 859.15 ± 0.1 | 3.308 ± 0.032
293.15 K, x1 = 0.3964 | 872.38 ± 0.1 | 2.544 ± 0.024
293.15 K, x1 = 0.5031 | 887.37 ± 0.09 | 1.951 ± 0.019
293.15 K, x1 = 0.604 | 902.57 ± 0.09 | 1.573 ± 0.015
293.15 K, x1 = 0.6995 | 918.01 ± 0.09 | 1.285 ± 0.013
293.15 K, x1 = 0.8175 | 938.67 ± 0.08 | 1.039 ± 0.01
293.15 K, x1 = 0.9124 | 956.76 ± 0.08 | 0.9 ± 0.009
293.15 K, x1 = 0.9531 | 964.98 ± 0.08 | 0.853 ± 0.008
303.15 K, x1 = 0.05353 | 823.7 ± 0.12 | 5.282 ± 0.05
303.15 K, x1 = 0.1003 | 828.65 ± 0.11 | 4.522 ± 0.043
303.15 K, x1 = 0.1902 | 838.63 ± 0.11 | 3.432 ± 0.033
303.15 K, x1 = 0.3002 | 851.69 ± 0.1 | 2.536 ± 0.024
303.15 K, x1 = 0.4112 | 865.89 ± 0.1 | 1.928 ± 0.019
303.15 K, x1 = 0.5038 | 878.58 ± 0.1 | 1.584 ± 0.015
303.15 K, x1 = 0.5934 | 891.62 ± 0.09 | 1.32 ± 0.013
303.15 K, x1 = 0.6981 | 907.98 ± 0.09 | 1.075 ± 0.011
303.15 K, x1 = 0.8151 | 927.85 ± 0.08 | 0.884 ± 0.009
303.15 K, x1 = 0.9138 | 946.1 ± 0.08 | 0.773 ± 0.008
303.15 K, x1 = 0.9548 | 954.16 ± 0.08 | 0.74 ± 0.007
313.15 K, x1 = 0.05666 | 816.83 ± 0.12 | 3.842 ± 0.037
313.15 K, x1 = 0.1109 | 822.42 ± 0.12 | 3.267 ± 0.031
313.15 K, x1 = 0.1956 | 831.59 ± 0.11 | 2.59 ± 0.025
313.15 K, x1 = 0.2893 | 842.35 ± 0.11 | 2.054 ± 0.02
313.15 K, x1 = 0.4005 | 856.05 ± 0.1 | 1.585 ± 0.015
313.15 K, x1 = 0.5067 | 870.12 ± 0.1 | 1.273 ± 0.012
313.15 K, x1 = 0.6044 | 884.01 ± 0.09 | 1.059 ± 0.01
313.15 K, x1 = 0.7038 | 899.18 ± 0.09 | 0.893 ± 0.009
313.15 K, x1 = 0.8041 | 915.66 ± 0.09 | 0.766 ± 0.008
313.15 K, x1 = 0.9092 | 934.43 ± 0.08 | 0.672 ± 0.007
313.15 K, x1 = 0.954 | 942.96 ± 0.08 | 0.643 ± 0.006

CCOC(=O)OCC [diethyl carbonate] + CCCO
[1]
Conditions | excess molar enthalpy [kcal/mol]
x1 = 0.05945 | 0.103 ± 0.00227
x1 = 0.1227 | 0.196 ± 0.0043
x1 = 0.1956 | 0.281 ± 0.00598
x1 = 0.2498 | 0.328 ± 0.00693
x1 = 0.2677 | 0.344 ± 0.00741
x1 = 0.3018 | 0.371 ± 0.00789
x1 = 0.3762 | 0.42 ± 0.00884
x1 = 0.4569 | 0.441 ± 0.00932
x1 = 0.4906 | 0.446 ± 0.00956
x1 = 0.5642 | 0.451 ± 0.00956
x1 = 0.6182 | 0.442 ± 0.00956
x1 = 0.6932 | 0.417 ± 0.00884
x1 = 0.7453 | 0.38 ± 0.00813
x1 = 0.824 | 0.312 ± 0.00669
x1 = 0.872 | 0.248 ± 0.00526
x1 = 0.9168 | 0.174 ± 0.00382

[2]
Conditions | mass density [kg/m3] | viscosity [mPa·s]
288.15 K, x1 = 0.05124 | 821.17 ± 0.12 | 2.135 ± 0.021
288.15 K, x1 = 0.07262 | 826.61 ± 0.12 | 2.007 ± 0.019
288.15 K, x1 = 0.1063 | 834.89 ± 0.11 | 1.833 ± 0.018
288.15 K, x1 = 0.1511 | 845.43 ± 0.11 | 1.638 ± 0.016
288.15 K, x1 = 0.2122 | 858.98 ± 0.1 | 1.459 ± 0.014
288.15 K, x1 = 0.2638 | 869.76 ± 0.1 | 1.33 ± 0.013
288.15 K, x1 = 0.31 | 878.92 ± 0.1 | 1.248 ± 0.012
288.15 K, x1 = 0.4016 | 895.92 ± 0.09 | 1.115 ± 0.011
288.15 K, x1 = 0.5147 | 915.01 ± 0.09 | 1 ± 0.01
288.15 K, x1 = 0.5916 | 926.96 ± 0.09 | 0.947 ± 0.009
288.15 K, x1 = 0.5994 | 928.13 ± 0.09 | 0.937 ± 0.009
288.15 K, x1 = 0.6906 | 941.32 ± 0.08 | 0.905 ± 0.009
288.15 K, x1 = 0.7887 | 954.53 ± 0.08 | 0.871 ± 0.009
288.15 K, x1 = 0.8694 | 964.81 ± 0.08 | 0.859 ± 0.009
288.15 K, x1 = 0.9428 | 973.71 ± 0.08 | 0.865 ± 0.009
293.15 K, x1 = 0.04957 | 816.57 ± 0.12 | 1.906 ± 0.018
293.15 K, x1 = 0.1001 | 829.1 ± 0.12 | 1.657 ± 0.016
293.15 K, x1 = 0.2101 | 853.96 ± 0.11 | 1.315 ± 0.013
293.15 K, x1 = 0.3074 | 873.57 ± 0.1 | 1.132 ± 0.011
293.15 K, x1 = 0.4038 | 891.34 ± 0.1 | 1.01 ± 0.01
293.15 K, x1 = 0.5097 | 909.09 ± 0.09 | 0.92 ± 0.009
293.15 K, x1 = 0.6002 | 923.04 ± 0.09 | 0.868 ± 0.009
293.15 K, x1 = 0.6963 | 936.76 ± 0.08 | 0.829 ± 0.008
293.15 K, x1 = 0.8059 | 951.25 ± 0.08 | 0.804 ± 0.008
293.15 K, x1 = 0.8817 | 960.76 ± 0.08 | 0.796 ± 0.008
293.15 K, x1 = 0.9433 | 968.14 ± 0.08 | 0.796 ± 0.008
303.15 K, x1 = 0.05148 | 808.69 ± 0.12 | 1.495 ± 0.015
303.15 K, x1 = 0.1008 | 820.63 ± 0.12 | 1.329 ± 0.013
303.15 K, x1 = 0.2044 | 843.53 ± 0.11 | 1.087 ± 0.011
303.15 K, x1 = 0.3161 | 865.57 ± 0.1 | 0.93 ± 0.009
303.15 K, x1 = 0.4048 | 881.45 ± 0.1 | 0.847 ± 0.008
303.15 K, x1 = 0.4459 | 888.41 ± 0.1 | 0.818 ± 0.008
303.15 K, x1 = 0.6 | 912.35 ± 0.09 | 0.743 ± 0.007
303.15 K, x1 = 0.6892 | 924.91 ± 0.09 | 0.715 ± 0.007
303.15 K, x1 = 0.792 | 938.39 ± 0.08 | 0.697 ± 0.007
303.15 K, x1 = 0.8809 | 949.35 ± 0.08 | 0.692 ± 0.007
303.15 K, x1 = 0.9364 | 955.95 ± 0.08 | 0.692 ± 0.007
313.15 K, x1 = 0.04668 | 798.89 ± 0.13 | 1.214 ± 0.012
313.15 K, x1 = 0.1008 | 811.63 ± 0.12 | 1.071 ± 0.011
313.15 K, x1 = 0.2119 | 835.52 ± 0.12 | 0.885 ± 0.009
313.15 K, x1 = 0.3075 | 854.04 ± 0.11 | 0.783 ± 0.008
313.15 K, x1 = 0.4133 | 872.66 ± 0.1 | 0.71 ± 0.007
313.15 K, x1 = 0.5019 | 886.95 ± 0.1 | 0.668 ± 0.007
313.15 K, x1 = 0.5998 | 901.56 ± 0.1 | 0.637 ± 0.006
313.15 K, x1 = 0.6913 | 914.21 ± 0.09 | 0.618 ± 0.006
313.15 K, x1 = 0.7902 | 926.98 ± 0.09 | 0.607 ± 0.006
313.15 K, x1 = 0.8456 | 933.82 ± 0.09 | 0.608 ± 0.006
313.15 K, x1 = 0.8699 | 936.73 ± 0.09 | 0.606 ± 0.006
313.15 K, x1 = 0.8903 | 939.21 ± 0.08 | 0.607 ± 0.006
313.15 K, x1 = 0.9488 | 946.12 ± 0.08 | 0.61 ± 0.006
